Data on eleven molecules can be found in patent US11535633B2, “Fused tricyclic heterocycle compounds and therapeutic uses thereof” (Jiangsu Hengrui Medicine Co., Ltd., priority 2018, dated 2022).

One may read the EC50 as the concentration at which the effect is half-maximal. Higher therefore signals a need for much substance. What is called ΔTm is the change in melting temperature against a reference sample.

Experiment [1] deals with Human PBMC cells. Put plainly: IFNβ secretion in human PBMC. The experiment is classed as cell-based. Particulars: IFNβ in supernatant by ELISA, 5 hours incubation. The method, then:
Test Example 3. IFNβ Secretion in Human PBMC
• 1. Human PBMC cells (STEMCELL Technologies) • 2. Lymphocyte Medium (Zenbio) • 3. Culture and compound dilution media: RPMI with high glucose and glutamine (Genesee, Cat. #25-506), 10% fetal bovine serum (Life Technologies, Cat. #10082147), 100 μg/ml Normocin (InvivoGen, Cat. #ant-nr-2) and Penicillin-Streptomycin (100×) (Life Technologies, Cat. #15140122) • 4. Human IFNβ Quantikine ELISA kit (R&D systems) • 5. Infinite M1000 plate reader (TECAN) Experimental Procedure
Cryopreserved peripheral blood human mononuclear cells (PBMCs) were rapidly thawed and resuspended in Lymphocyte Media and centrifuged at 500×g for 5 minutes. The supernatant was removed and the cell pellets were gently resuspended in cell culture and compound dilution media. Human PBMC cells were plated in a 96-well format at a concentration of 1.5×10^5 cells per well. The test compounds, at varying concentrations, or vehicle control (<0.3% DMSO) were mixed with the cells giving a final volume of 150 μl per well. The plates were incubated for 5 hours in a humidified, 5% CO2 incubator at 37° C. After incubation, the human IFNβ in the supernatant and the IFNβ standard controls were measured using human IFNβ Quantikine ELISA kit according to the manufacturer's protocol. The absorbance at 450 nm was measured with Infinite M1000 plate reader and corrected by background reading at 540 nm of each well. The amount of […] based on the standard curves. The plot of IFNβ concentration versus the log of compound concentration was fit in GraphPad Prism with a 4-parameter concentration response equation to calculate EC50 and Emax.
For orientation: An ELISA detects its analyte on a solid surface through an enzyme-linked reagent.

Experiment [2] concerns the target T1, STING in THP1-Dual KI-hSTING-R232 cells (Homo sapiens, UniProt Q86WV6, H232R).
T1 construct: host or cells: THP1-Dual KI-hSTING-R232 cells (human monocytic THP-1 reporter line)
Put plainly: Human THP1 reporter cell assay (IRF luciferase reporter). The experiment is classed as cell-based. As to conditions: 24 hours incubation. The method, then:
Test Example 2. Human THP1 Reporter Cell Assay
• 1. Human THP1-Dual KI-hSTING-R232 Cells (InvivoGen, Cat. #thpd-r232) • 2. QUANTI-LUC (InvivoGen, Cat. #rep-qlc2) • 3. Media for cell culture and compound dilution: RPMI with high glucose and glutamine (Genesee, Cat. #25-506), 10% fetal bovine serum (Life Technologies, Cat. #10082147), 25 mM HEPES (Genesee, Cat. #25-534), 100 μg/ml Normocin (InvivoGen, Cat. #ant-nr-2), 10 μg/ml blasticidin (InvivoGen, Cat. #ant-bl-05), 100 μg/ml Zeocin (InvivoGen, Cat. #ant-zn-5p) and Penicillin-Streptomycin (100×) (Life Technologies, Cat. #15140122) • 4. Infinite M1000 plate reader (TECAN) Experimental Procedure
Activation of STING in THP1-Dual KI-hSTING-R232 cells was determined by measuring the luminescence signal resulting from the expression of the IRF luciferase reporter gene. All reagent preparation and assay procedures were conducted according to the protocols provided by InvivoGen. In brief, test compounds and cells (1×10^5 cells per well) were dispensed into 96-well plates with a final volume per well of 150 μl. Plates were incubated in a humidified, 5% CO2 incubator at 37° C. for 24 hours. The expression level of the reporter gene was measured by transferring 20 μl of the supernatant to a non-transparent 96-well plate to which 50 μl of QUANTI-LUC was dispensed into each well. The resulting luminescence signal was immediately read using a TECAN plate reader. The background luminescence signal from media was subtracted. The fold induction effect of the luminescence signal at each compound concentration was determined relative to controls that lack compound treatment. The plot of fold induction effect versus the log of compound concentration was fit in GraphPad Prism with a 4-parameter concentration response equation to calculate EC50 and Emax.
Activation of STING in THP1 of the compounds in the present invention was determined by the above assay, and EC50 values are shown in the following table 2.
(In general: Reporter assays use an easily measured gene product as a stand-in for the process of interest.)

Experiment [3] concerns the target T2, hSTING c-terminal domain (purified hSTING aa154-342) (Homo sapiens, UniProt Q86WV6).
T2 construct: Purified hSTING (aa154-342)
The experiment can be described thus: Thermal shift assay for measuring the relative binding affinity to hSTING c-terminal domain. As to conditions: Tm of sample minus mean Tm of negative control (buffer, 2% DMSO), SYPRO Orange. How it is done: Test Example 1. Thermal Shift Assay for Measuring the Relative Binding Affinity to hSTING c-Terminal Domain
From each of the 10 mM stock solutions of compounds in DMSO, dilutions are made to create samples with three concentrations 10 mM, 5 mM and 2.5 mM. From these dilutions a final 50 fold dilution is made into assay buffer, giving concentrations of 200 μM, 100 μM, and 50 μM. From each of the buffer dilutions, 5 μL is added to the 384 well assay plate. A positive control is setup with cGAMP using the same dilution scheme as the ligands. A baseline thermal shift for the negative control is determined using buffer and 2% DMSO.
An aliquot of protein is thawed on ice and SYPRO orange reagent is brought to room temperature. The 5000× SYPRO orange stock is diluted in assay buffer to a concentration of 10×. Protein is diluted to a concentration of 10 μM in the prepared buffer/dye solution. Five micro-liters of protein/buffer/dye solution is added to each of the sample and control wells, and the plate is sealed with the provided films. The plate is centrifuged for 5 min at 20° C. at 1000 rpm.
On the Light Cycler instrument, measurements are made over a temperature gradient from 20° C. to 99° C. at 0.07° C./s and data acquisitions collected at a rate of 8/° C. is used to measure the change in fluorescence as a function of temperature. Data analysis is performed using the Roche Light Cycler Software to determine the melting temperature (Tm ° C.) of each sample. A mean Tm ° C. for the negative control is calculated and subtracted from each of the samples to generate the ΔTm ° C. values for each of the ligands.
The relative binding affinity to hSTING c-terminal domain of the compounds of the present invention was determined by the above assay, and ΔTm ° C. values are shown in the following table 1.

T1 sequence (Q86WV6 whole entry H232R): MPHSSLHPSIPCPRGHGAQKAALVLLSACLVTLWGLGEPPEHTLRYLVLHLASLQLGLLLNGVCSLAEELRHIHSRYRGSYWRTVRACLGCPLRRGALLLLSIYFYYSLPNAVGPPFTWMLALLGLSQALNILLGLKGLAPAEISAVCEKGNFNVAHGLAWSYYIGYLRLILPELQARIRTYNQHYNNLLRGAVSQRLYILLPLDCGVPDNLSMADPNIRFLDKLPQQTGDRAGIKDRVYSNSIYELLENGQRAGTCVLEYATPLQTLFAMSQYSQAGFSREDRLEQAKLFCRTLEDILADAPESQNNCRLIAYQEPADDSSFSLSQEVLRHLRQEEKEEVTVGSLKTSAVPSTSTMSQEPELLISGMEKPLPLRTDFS
T2 sequence (Q86WV6 154-342): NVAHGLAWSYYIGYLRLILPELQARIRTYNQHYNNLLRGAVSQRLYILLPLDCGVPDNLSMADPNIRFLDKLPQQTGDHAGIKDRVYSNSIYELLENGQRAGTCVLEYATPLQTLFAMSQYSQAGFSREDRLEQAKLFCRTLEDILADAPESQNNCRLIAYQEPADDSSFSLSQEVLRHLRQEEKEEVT

Consider `C/C=C\C[C@H]1COc2cc(C(N)=O)cc3nc(NC(=O)c4cc(C)nn4CC)n1c23` [Example 5-2, (S,Z)-3-(but-2-en-1-yl)-2-(1-ethyl-3-methyl-1H-pyrazole-5-carboxamido)-3,4-dihydro-5-oxa-1,2a-diazaacenaphthylene-7-carboxamide], for which the EC50 in experiment [1] turned out to be 1900 nM; in experiment [2], 1300 nM. The matching figures for `C/C=C/C[C@H]1COc2cc(C(N)=O)cc3nc(NC(=O)c4cc(C)nn4CC)n1c23` [Example 5-3, (S,E)-3-(but-2-en-1-yl)-2-(1-ethyl-3-methyl-1H-pyrazole-5-carboxamido)-3,4-dihydro-5-oxa-1,2a-diazaacenaphthylene-7-carboxamide]: 1500 nM and 1300 nM. As for `C=CC[C@H]1COc2cc(C(N)=O)cc3nc(NC(=O)c4cc(C)nn4CCC)n1c23` [Example 11, (S)-3-allyl-2-(3-methyl-1-propyl-1H-pyrazole-5-carboxamido)-3,4-dihydro-5-oxa-1,2a-diazaacenaphthylene-7-carboxamide], a half-maximal effect in experiment [1] (EC50) was put at 17000 nM. The ΔTm at 100 µM in experiment [3] came to 5.5 °C. Take `CCn1nc(C)cc1C(=O)Nc1nc2cc(C(N)=O)cc(OC)c2n1CC=C[C@H]1COc2cc(C(N)=O)cc3nc(NC(=O)c4cc(C)nn4CC)n1c23` [Example 14, (S)-3-(3-(5-carbamoyl-2-(1-ethyl-3-methyl-1H-pyrazole-5-carboxamido)-7-methoxy-1H-benzo[d]imidazol-1-yl)prop-1-en-1-yl)-2-(1-ethyl-3-methyl-1H-pyrazole-5-carboxamido)-3,4-dihydro-5-oxa-1,2a-diazaacenaphthylene-7-carboxamide]: in experiment [1], the EC50 worked out at 1800 nM. In addition, the ΔTm at 100 µM in experiment [3] came out at 4 °C. Turning to `CCn1nc(C)cc1C(=O)Nc1nc2cc(C(N)=O)cc(OC)c2n1C/C=C/C[C@H]1COc2cc(C(N)=O)cc3nc(NC(=O)c4cc(C)nn4CC)n1c23` [Example 15, (S,E)-3-(4-(5-carbamoyl-2-(1-ethyl-3-methyl-1H-pyrazole-5-carboxamido)-7-methoxy-1H-benzo[d]imidazol-1-yl)but-2-en-1-yl)-2-(1-ethyl-3-methyl-1H-pyrazole-5-carboxamido)-3,4-dihydro-5-oxa-1,2a-diazaacenaphthylene-7-carboxamide], in experiment [1], the EC50 worked out at 19000 nM. The ΔTm at 100 µM in experiment [3] turned out to be 3 °C. Consider `CCn1nc(C)cc1C(=O)Nc1nc2cc(C(N)=O)ccc2n1CCC[C@H]1COc2cc(C(N)=O)cc3nc(NC(=O)c4cc(C)nn4CC)n1c23` [Example 18, (S)-3-(3-(5-carbamoyl-2-(1-ethyl-3-methyl-1H-pyrazole-5-carboxamido)-1H-benzo[d]imidazol-1-yl)propyl)-2-(1-ethyl-3-methyl-1H-pyrazole-5-carboxamido)-3,4-dihydro-5-oxa-1,2a-diazaacenaphthylene-7-carboxamide], for which the results for the EC50 in experiment [1] and in experiment [2] were 300 nM and 160 nM, respectively. `CCn1nc(C)cc1C(=O)Nc1nc2cc(C(N)=O)cc(OCCCO)c2n1CCC[C@H]1COc2cc(C(N)=O)cc3nc(NC(=O)c4cc(C)nn4CC)n1c23` [Example 19, (S)-3-(3-(5-carbamoyl-2-(1-ethyl-3-methyl-1H-pyrazole-5-carboxamido)-7-(3-hydroxypropoxy)-1H-benzo[d]imidazol-1-yl)propyl)-2-(1-ethyl-3-methyl-1H-pyrazole-5-carboxamido)-3,4-dihydro-5-oxa-1,2a-diazaacenaphthylene-7-carboxamide] yielded an EC50 in experiment [1] of 700 nM. Regarding `CCn1nc(C)cc1C(=O)Nc1nc2cc(C(N)=O)cc(OCCCN3CCOCC3)c2n1CCC[C@H]1COc2cc(C(N)=O)cc3nc(NC(=O)c4cc(C)nn4CC)n1c23` [Example 22, (S)-3-(3-(5-carbamoyl-2-(1-ethyl-3-methyl-1H-pyrazole-5-carboxamido)-7-(3-morpholinopropoxy)-1H-benzo[d]imidazol-1-yl)propyl)-2-(1-ethyl-3-methyl-1H-pyrazole-5-carboxamido)-3,4-dihydro-5-oxa-1,2a-diazaacenaphthylene-7-carboxamide], the EC50 in experiment [1] is 340 nM; in experiment [2], 100 nM.

For the molecule `CCn1nc(C)cc1C(=O)Nc1nc2cc(C(N)=O)cc(OCCCOP(=O)(O)O)c2n1CCC[C@H]1COc2cc(C(N)=O)cc3nc(NC(=O)c4cc(C)nn4CC)n1c23` [Example 23, (S)-3-((5-carbamoyl-1-(3-(7-carbamoyl-2-(1-ethyl-3-methyl-1H-pyrazole-5-carboxamido)-3,4-dihydro-5-oxa-1,2a-diazaacenaphthylen-3-yl)propyl)-2-(1-ethyl-3-methyl-1H-pyrazole-5-carboxamido)-1H-benzo[d]imidazol-7-yl)oxy)propyl dihydrogen phosphate], the half-maximal effective concentration (EC50) in experiment [2] was found to be 700 nM. For the same molecule, the thermal shift (ΔTm) at 100 µM in experiment [3] amounted to 11 °C.

`CCn1nc(C)cc1C(=O)Nc1nc2cc(C(N)=O)cc(OCCCN(C)C)c2n1CCC[C@H]1COc2cc(C(N)=O)cc3nc(NC(=O)c4cc(C)nn4CC)n1c23` [Example 24, (S)-3-(3-(5-carbamoyl-7-(3-(dimethylamino)propoxy)-2-(1-ethyl-3-methyl-1H-pyrazole-5-carboxamido)-1H-benzo[d]imidazol-1-yl)propyl)-2-(1-ethyl-3-methyl-1H-pyrazole-5-carboxamido)-3,4-dihydro-5-oxa-1,2a-diazaacenaphthylene-7-carboxamide]: the EC50 in experiment [2] was 350 nM. In addition, the ΔTm at 100 µM in experiment [3] is 12 °C. For `C=CCOc1cc(C(N)=O)cc2nc(NC(=O)c3cc(C)nn3CC)n(CCC[C@H]3COc4cc(C(N)=O)cc5nc(NC(=O)c6cc(C)nn6CC)n3c45)c12` [Example 25, (S)-3-(3-(7-(allyloxy)-5-carbamoyl-2-(1-ethyl-3-methyl-1H-pyrazole-5-carboxamido)-1H-benzo[d]imidazol-1-yl)propyl)-2-(1-ethyl-3-methyl-1H-pyrazole-5-carboxamido)-3,4-dihydro-5-oxa-1,2a-diazaacenaphthylene-7-carboxamide], in experiment [2], the concentration for a half-maximal effect (EC50) was determined as 500 nM. In experiment [3], the ΔTm at 100 µM came out at 13 °C.
